Measured values as given in ChEMBL document CHEMBL5046252, “Integrin-Mediated Targeted Cancer Therapy Using c(RGDyK)-Based Conjugates of Gemcitabine” (J Med Chem, 2022).
Calls of active or inactive are those of the source. No cut-off for these calls is given here.

Tests used:
[1] = Drug metabolism in C57BL/6 naive mouse blood assessed as release of gemcitabine metabolite at 10 mg/kg, ip measured after 0.5 hrs by LC-MS/MS analysis; type: ADME, organism-based; conditions: in vivo
[2] = Chemostability of the compound in acetate buffer at pH 5.2 measured upto 48 hrs by LC-MS analysis; type: physicochemical; conditions: pH 5.2, 48 h
[3] = Stability of the compound in DMEM-F12 medium measured for 70 hrs by LC-MS/MS analysis; type: physicochemical
[4] = Stability of the compound in human plasma at 1 ug/ml measured for 4 hrs by LC-MS/MS analysis; type: ADME, cell-free; conditions: at 1 µg/mL
[5] = Stability of the compound in human A549 cells assessed as parent compound concentration at 10 uM measured per 2 x 10^6 cells after 4 hrs by LC-MS/MS analysis; type: ADME, cell-based; conditions: a549, 4 h
[6] = Drug metabolism in human A549 cells assessed as 2',2'-difluorodeoxyuridine metabolite concentration at 10 uM measured per 2X10^5 cells after 24 hrs by LC-MS/MS analysis; type: ADME, cell-based; conditions: a549, 24 h
[7] = Drug metabolism in human A549 cells assessed as gemcitabine metabolite formation at 10 uM measured per 2 x 10^5 cells after 24 hrs by LC-MS/MS analysis; type: ADME, cell-based; conditions: a549, 24 h
[8] = Drug uptake in human A549 cells at 20 uM in presence of alphavbeta3 integrin […], c(RGDyK) incubated for 2 hrs by LC-MS analysis; type: cell-based; conditions: a549, 2 h
[9] = Drug uptake in human A549 cells at 20 uM in presence of alphavbeta3 integrin […]-cilengitide incubated for 2 hrs by LC-MS analysis; type: cell-based; conditions: a549, 2 h
WM 266-4 [10] = test: Inhibition of cell invasiveness in human WM266-4 cells at 10 uM measured after 4 hrs by DiffQuick staining based light microscopic analysis; type: functional
WM 266-4 [11] = test: Induction of apoptosis in human WM266-4 cells assessed as viable cells at 1 uM measured after 72 hrs by Annexin V-FITC and PI staining based flow cytometry analysis (reference value: 98.2%); type: functional; conditions: read-out: Activity
WM 266-4 [12] = test: Induction of apoptosis in human WM266-4 cells assessed as early apoptotic cells at 1 uM measured after 72 hrs by Annexin V-FITC and PI staining based flow cytometry analysis (reference value: 0.2%); type: functional
WM 266-4 [13] = test: Induction of apoptosis in human WM266-4 cells assessed as late apoptotic cells at 1 uM measured after 72 hrs by Annexin V-FITC and PI staining based flow cytometry analysis (reference value: 0.5%); type: functional
WM 266-4 [14] = test: Induction of apoptosis in human WM266-4 cells assessed as necrotic cells at 1 uM measured after 72 hrs by Annexin V-FITC and PI staining based flow cytometry analysis (reference value: […]); type: functional
WM 266-4 [15] = test: Inhibition of clonogenicity in human WM266-4 cells assessed as proportion of cell colonies at 1 uM measured after 72 hrs relative to control; type: functional; design: scale not given: the % may be the effect or the level left
WM 266-4 [16] = test: Inhibition of cell growth in human WM266-4 cells measured after 24 hrs; type: functional, cell-based; conditions: WM 266-4, 24 h
A549 = test: Antiproliferative activity against human A549 cells assessed as inhibition of cell growth measured after 72 hrs by MTT assay; type: functional, cell-based; conditions: A549, 72 h
[17] = Drug uptake in C57BL/6 naive mouse blood at 10 mg/kg, ip measured after 0.25 hrs by LC-MS/MS analysis; type: ADME, organism-based; conditions: C57BL/6, mouse, whole blood, read-out: Drug uptake
[18] = Drug uptake in C57BL/6 naive mouse blood at 10 mg/kg, ip measured after 0.5 hrs by LC-MS/MS analysis; type: ADME, organism-based; conditions: C57BL/6, mouse, whole blood, read-out: Drug uptake
[19] = Drug uptake in C57BL/6 naive mouse blood at 10 mg/kg, ip measured after 1 hr by LC-MS/MS analysis; type: ADME, organism-based; conditions: C57BL/6, mouse, whole blood, read-out: Drug uptake
[20] = Drug uptake in C57BL/6 naive mouse blood at 10 mg/kg, ip measured after 2 hrs by LC-MS/MS analysis; type: ADME, organism-based; conditions: C57BL/6, mouse, whole blood, read-out: Drug uptake
[21] = Drug uptake in C57BL/6 naive mouse blood at 10 mg/kg, ip measured after 4 hrs by LC-MS/MS analysis; type: ADME, organism-based; conditions: C57BL/6, mouse, whole blood, read-out: Drug uptake
[22] = Drug uptake in C57BL/6 naive mouse blood at 10 mg/kg, ip measured after 6 hrs by LC-MS/MS analysis; type: ADME, organism-based; conditions: C57BL/6, mouse, whole blood, read-out: Drug uptake
[23] = Drug uptake in C57BL/6 naive mouse blood at 10 mg/kg, ip measured after 8 hrs by LC-MS/MS analysis; type: ADME, organism-based; conditions: C57BL/6, mouse, whole blood, read-out: Drug uptake
[24] = Drug uptake in C57BL/6 naive mouse blood at 10 mg/kg, ip measured after 24 hrs by LC-MS/MS analysis; type: ADME, organism-based; conditions: C57BL/6, mouse, whole blood, read-out: Drug uptake
[25] = Drug metabolism in C57BL/6 naive mouse blood assessed as release of gemcitabine metabolite at 10 mg/kg, ip measured after 0.25 hrs by LC-MS/MS analysis; type: ADME, organism-based; conditions: in vivo
[26] = Drug metabolism in C57BL/6 naive mouse blood assessed as release of gemcitabine metabolite at 10 mg/kg, ip measured after 1 hr by LC-MS/MS analysis; type: ADME, organism-based; conditions: in vivo
[27] = Drug metabolism in C57BL/6 naive mouse blood assessed as release of gemcitabine metabolite at 10 mg/kg, ip measured after 2 hrs by LC-MS/MS analysis; type: ADME, organism-based; conditions: in vivo
[28] = Drug metabolism in C57BL/6 naive mouse blood assessed as release of gemcitabine metabolite at 10 mg/kg, ip measured after 4 hrs by LC-MS/MS analysis; type: ADME, organism-based; conditions: in vivo
[29] = Drug metabolism in C57BL/6 naive mouse blood assessed as release of gemcitabine metabolite at 10 mg/kg, ip measured after 6 hrs by LC-MS/MS analysis; type: ADME, organism-based; conditions: in vivo
[30] = Drug metabolism in C57BL/6 naive mouse blood assessed as release of gemcitabine metabolite at 10 mg/kg, ip measured after 8 hrs by LC-MS/MS analysis; type: ADME, organism-based; conditions: in vivo
[31] = Drug metabolism in C57BL/6 naive mouse blood assessed as release of gemcitabine metabolite at 10 mg/kg, ip measured after 24 hrs by LC-MS/MS analysis; type: ADME, organism-based; conditions: in vivo
[32] = Stability of the compound in C57BL/6 naive mouse blood at 10 mg/kg, ip measured for 1 hr by LC-MS/MS analysis; type: ADME, organism-based; conditions: in vivo
[33] = Chemostability of the compound in phosphate buffer buffer at pH 7.4 measured upto 48 hrs by LC-MS analysis; type: physicochemical; conditions: pH 7.4, 48 h
[34] = Chemostability of the compound in phosphate buffer assessed as compound hydrolysis at pH 7.4 measured after 7 hrs by LC-MS analysis; type: physicochemical; conditions: pH 7.4, 7 h
[35] = Chemostability of the compound in phosphate buffer assessed as residual parent compound concentration at pH 7.4 measured after 24 hrs by LC-MS analysis; type: physicochemical; conditions: read-out: Activity
[36] = Drug metabolism in human plasma assessed as gemcitabine release at 1 ug/ml by LC-MS/MS analysis; type: ADME, cell-free; conditions: dose 1 µg/ml
[37] = Drug metabolism in human plasma assessed as release of 2',2'-difluorodeoxyuridine metabolite at 1 ug/ml by LC-MS/MS analysis; type: ADME, cell-free; conditions: dose 1 µg/ml

For `N=C(N)NCCC[C@@H]1NC(=O)[C@H](CCCCNC(=O)OC[C@H]2O[C@@H](n3ccc(N)nc3=O)C(F)(F)[C@@H]2O)NC(=O)[C@@H](Cc2ccc(O)cc2)NC(=O)[C@H](CC(=O)O)NC(=O)CNC1=O`, the Drug metabolism [1] was 33 nM, the Stability [2] was “Stable” and the Stability [3] was “Stable”. The Stability [4] was “Stable”, the Drug uptake [5] was 5 ng and the Drug metabolism [6] was 4 ng. The Drug metabolism [7] was < 0.05 ng, the Drug uptake [8] was “Not Active” and the Drug uptake [9] was “Not Active”. For the same compound, the inhibition (WM 266-4 [10]) was “Active”, the viability at 1 µM (WM 266-4 [11]) was 72.3% and the Activity (WM 266-4 [12]) was 1.3%. For the same compound, the Activity (WM 266-4 [13]) was 4.8%, the Activity (WM 266-4 [14]) was 21.7% and the Activity (WM 266-4 [15]) was 8.3%. The IC50 (WM 266-4 [16]) was 57.6 µM, the IC50 (A549) was 0.678 µM and the concentration at 0.25 h [17] was 6660 nM. For the same compound, the concentration at 0.5 h [18] was 8470 nM, the concentration at 1 h [19] was 3320 nM and the concentration at 2 h [20] was 547 nM. For the same compound, the concentration at 4 h [21] was 38 nM, the concentration at 6 h [22] was 168 nM and the concentration at 8 h [23] was 11 nM. For the same compound, the concentration at 24 h [24] was 14 nM, the Drug metabolism [25] was 748 nM and the Drug metabolism [26] was 46 nM. It also gave a Drug metabolism [27] of 6 nM, a Drug metabolism [28] of 7 nM and a Drug metabolism [29] of 11 nM. The Drug metabolism [30] was 40 nM, the Drug metabolism [31] was 3 nM and the Stability [32] was “Stable”. The Stability [33] was “Stable”.
For `N=C(N)NCCC[C@@H]1NC(=O)[C@H](CCCCN)NC(=O)[C@@H](Cc2ccc(O)cc2)NC(=O)[C@H](CC(=O)O)NC(=O)CNC1=O`, the inhibition (WM 266-4 [10]) was “Active”.
`Nc1ccn([C@@H]2O[C@H](CO)[C@@H](O)C2(F)F)c(=O)n1` [GEMCITABINE] showed a viability at 1 µM (WM 266-4 [11]) of 78.3%, an Activity (WM 266-4 [12]) of 4.1% and an Activity (WM 266-4 [13]) of 5.1%. It also gave an Activity (WM 266-4 [14]) of 12.4%, an Activity (WM 266-4 [15]) of 46.6% and an IC50 (WM 266-4 [16]) of 17.8 µM. For the same compound, the IC50 (A549) was 0.0188 µM.
In the case of `N=C(N)NCCC[C@@H]1NC(=O)[C@H](CCCCNC(=O)OCCSSCCOC(=O)OC[C@H]2O[C@@H](n3ccc(N)nc3=O)C(F)(F)[C@@H]2O)NC(=O)[C@@H](Cc2ccc(O)cc2)NC(=O)[C@H](CC(=O)O)NC(=O)CNC1=O`, the Stability [2] is reported as “Stable”, the Stability [34] is reported as “Unstable” and the remaining at 24 h [35] is reported as 85%. For the same compound, the Drug metabolism [36] was “Metabolite_Detected”, the Drug metabolism [37] was “Metabolite_Detected” and the inhibition (WM 266-4 [10]) was “Active”. For the same compound, the viability at 1 µM (WM 266-4 [11]) was 66.4%, the Activity (WM 266-4 [12]) was 0.3% and the Activity (WM 266-4 [13]) was 2.2%. The Activity (WM 266-4 [14]) was 31.1%, the Activity (WM 266-4 [15]) was 4.9% and the IC50 (WM 266-4 [16]) was > 100 µM. It also gave an IC50 (A549) of 0.0306 µM.
